Series [1] is described as follows: Half life in rat at 0.5 mg/kg, iv or 1 mg/kg, po. The class given is ADME, organism-based. The following applies: in vivo.
A short description of series [2]: Oral bioavailability in rat at 1 mg/kg. Format: ADME, organism-based. The following applies: in vivo.
A short description of series [3]: in vivo. The following applies: rat, iv, 0.5 mg/kg.
Series [4] can be described thus: Total clearance in rat at 1 mg/kg, iv. Format: ADME, organism-based. The following applies: in vivo.
Series [5] can be described thus: Half life in rat at 1 mg/kg, iv. Format: ADME, organism-based. The following applies: in vivo.
Series [6] can be described thus: AUC in rat at 3 mg/kg, po. The class given is ADME, organism-based. The conditions noted are these: in vivo.
A short description of series [7]: Cmax in rat at 3 mg/kg, po. Format: ADME, organism-based. The arrangement: dose 3 mg/kg, route oral. The conditions noted are these: in vivo.
The nature of series [8]: Oral bioavailability in rat at 3 mg/kg. The class given is ADME, organism-based. The conditions noted are these: in vivo.

We go through 18 compounds from ChEMBL document CHEMBL4422675, “Pyrrolinone derivatives as a new class of P2X3 receptor antagonists Part 2: Discovery of orally bioavailable compounds” (Bioorg Med Chem Lett, 2019).

Broadly, the half-life is the time needed for the level to fall by half in the phase considered. Lower therefore signals rapid decline. As usually defined, the bioavailability is dose-corrected exposure relative to a reference, in per cent. A higher bioavailability goes with much systemic uptake. Usually clearance stands for a measure of how efficiently the substance is removed, as volume per time. A lower clearance goes with a low capacity for elimination. The compound `CC(C)C(=O)C1=C(O)C(=O)N(c2ccc(-c3ccsc3)cc2)C1c1ccccc1OCC[S+](C)[O-]` (stereo not given) had a half-life in series [1] of 1.1 h. Also, in series [2], the bioavailability amounted to 0.7%. This compound also gave a clearance in series [3] of 23.2 mL/min/kg.
For `CCC(CC)C1C(C(=O)c2ccc(OC)cc2)=C(O)C(=O)N1c1ccc(-c2ccon2)cc1` (stereo not given) the same measures were 4.2 h, 18.9% and 5.1 mL/min/kg.
As usually defined, the AUC is concentration integrated over time. A high value points to more exposure. As a reminder, the Cmax is the highest concentration seen after dosing. Regarding `COc1ccccc1[C@@H]1C(C(=O)C(C)C)=C([O-])C(=O)N1c1ccc(-c2ccsc2)cc1.[Na+]`, the clearance in series [4] was 0.39 mL/min/kg. This compound also showed a half-life in series [5] of 3.2 h. In series [6], this compound registered an AUC of 48400 ng·h/mL. This compound came in with a Cmax in series [7] of 4230 ng/mL. The compound further registered a bioavailability in series [8] of 37.4%.
In series [1], `COc1ccccc1C1C(C(=O)C(C)(C)C)=C(O)C(=O)N1c1ccc(-c2ccon2)cc1` (stereo not given) gave a half-life of 2.6 h. In series [2], the bioavailability was 77.9%. In series [3], this compound had a clearance of 1.3 mL/min/kg.
Regarding `CC(C)(C)C(=O)C1=C(O)C(=O)N(c2ccc(-c3ccsc3)cc2)C1c1ccccc1OCC(=O)O` (stereo not given), the half-life in series [1] was 4.2 h. In addition, the bioavailability in series [2] is 5.2%.
On to `COc1ccccc1C1C(C(=O)C(C)C)=C(O)C(=O)N1c1ccc(-c2ccsc2)cc1` (stereo not given), for which the half-life in series [1] is 6.1 h. Further, the bioavailability in series [2] is 20%. The clearance in series [3] came to 0.3 mL/min/kg.
On to `COc1ccc(C(=O)C2=C(O)C(=O)N(c3ccc(-c4ccon4)cc3)C2C2CCCCC2)cn1` (stereo not given), for which the half-life in series [1] was 1.4 h. In series [2], this compound showed a bioavailability of 28.1%. The compound further showed a clearance in series [3] of 4.6 mL/min/kg.
`C[S+]([O-])CCOc1ccccc1C1C(C(=O)C(C)(C)C)=C(O)C(=O)N1c1ccc(-c2ccsc2)cc1` (stereo not given) showed a half-life in series [1] of 1.4 h. The bioavailability in series [2] is 23.2%. In series [3], this compound displayed a clearance of 13.7 mL/min/kg.
`CC(C)(C)C(=O)C1=C(O)C(=O)N(c2ccc(-c3cccs3)cc2)C1c1ccccc1OCCO` (stereo not given) showed a half-life in series [1] of 2 h. This compound showed a bioavailability in series [2] of 65.2%. In addition, the clearance in series [3] stood at 1.3 mL/min/kg.
`CNC(=O)c1ccc(C(=O)C2=C(O)C(=O)N(c3ccc(-c4ccon4)cc3)C2C2CCCCC2)cc1` (stereo not given): in series [1], the half-life is 0.7 h. Besides, in series [2], the bioavailability worked out at 1.6%.
Regarding `CC(C)(C)C(=O)C1=C(O)C(=O)N(c2ccc(-c3ccsc3)cc2)C1c1ccccc1OCCO` (stereo not given), in series [1], the half-life is 3.3 h. The compound also had a bioavailability in series [2] of 39.5%.
For the compound `O=C(O)c1ccc(C(=O)C2=C(O)C(=O)N(c3ccc(-c4ccon4)cc3)C2C2CCCCC2)cc1` (stereo not given), the half-life in series [1] is 1.9 h. This compound also showed a bioavailability in series [2] of 3.7%.
In series [1], `CC(C)C(=O)C1=C(O)C(=O)N(c2ccc(-c3ccsc3)cc2)C1c1ccccc1OCCO` (stereo not given) had a half-life of 1 h. For the same compound, in series [2], the bioavailability stood at 40.8%.
As for `COc1ccc(C(=O)C2=C(O)C(=O)N(c3ccc(-c4ccon4)cc3)C2c2ccccc2OC)cc1` (stereo not given), the half-life in series [1] is 0.5 h. The bioavailability in series [2] turned out to be 19.9%. Further, in series [3], the clearance was 8.8 mL/min/kg.
In turn, `COc1ccc(C(=O)C2=C(O)C(=O)N(c3ccc(-c4ccon4)cc3)C2c2ccccc2OCCO)cc1` (stereo not given) showed a half-life in series [1] of 0.5 h. Moreover, in series [2], the bioavailability came out at 9%.
In turn, `CC(C)(C)C(=O)C1=C(O)C(=O)N(c2ccc(-c3ccon3)cc2)C1c1ccccc1OCCO` (stereo not given) showed a half-life in series [1] of 2.1 h. This compound also came in with a bioavailability in series [2] of 49.9%. In series [3], this compound registered a clearance of 2.9 mL/min/kg.
Compound `CN(C)CCOc1ccccc1C1C(C(=O)C(C)(C)C)=C(O)C(=O)N1c1ccc(-c2ccsc2)cc1` (stereo not given) showed a half-life in series [1] of 1.5 h. Further, the bioavailability in series [2] was determined as 15.5%. The clearance in series [3] amounted to 7.3 mL/min/kg.
For `O=C(C1=C(O)C(=O)N(c2ccc(-c3ccon3)cc2)C1C1CCCCC1)c1ccc(CO)cc1` (stereo not given), in series [1], the half-life is 1.4 h. In series [2], this compound showed a bioavailability of 6.7%. In series [3], this compound showed a clearance of 3.8 mL/min/kg.
